# Read-outs that look alike come from different tables or passages of the source.
# Assays:
# macrophages IC-21 [1] = type: cell-based, mouse
# [2] = concentrations of the order of tens of μM; cited from earlier work
# macrophages IC-21 [3] = conditions: peptide at 50 μM, IC-21 cells, 1 h
# macrophages IC-21 [4] = test: Binding of 2-μm non-opsonized latex particles by macrophages; type: cell-based, mouse
# hepatitis C virus = conditions: in vitro; cited from earlier work
substance,measurement,setting,value
"methyl-β-cyclodextrin [mβCD, reference compound]","Cell activity, % of the control","macrophages IC-21 [1]; 3.7 mM mβCD, without a peptide, representative experiment, p < 0.001",121 % of the control
ATVLNYYVWRDNS,Toxicity,[2],not toxic
Ac-STKLSEMLSELGNMDKASKLSRKLSR-NH2 [Mut2],Toxic effect on cells,macrophages IC-21 [3],not toxic
same,Change in the phagocytosis index,"macrophages IC-21 [4]; concentration range from 0.5 to 50 μM, 6 independent experiments for each peptide",did not cause significant changes
SWLRDIWDWICEVLSDFK [C5A],Suppression of virus production,hepatitis C virus,more than 5 orders of magnitude
Ac-EWGMAVLWERNRKLKKDLKVLKMLRT-NH2 [Mut1],Toxic effect on cells,macrophages IC-21 [3],did not exert a toxic effect
same,"Number of particles per cell, % of the control","macrophages IC-21 [4]; Mut1 at 2–10 μM, 7 independent experiments",~ 160 % of the control
same,Concentration range at which maximal stimulatory effect was observed,"macrophages IC-21 [4]; number of particles per cell, IC-21, 1 h at 37°C, peptide range 0.5 to 50 μM",4 to 5 µM
same,Phagocytic index relative to control,"macrophages IC-21 [4]; peptide at 50 μM, 7 independent experiments",returned to the control level
same,"Number of particles per cell, % of the control","macrophages IC-21 [1]; peptide at 2 μM, cells not treated with mβCD, representative experiment (Fig. 5)",134 % of the control
VLNYYVW,Toxicity,[2],not toxic
